One data set relates to Cancer cell lines. Put plainly: Cytotoxicity against human non-small cell lung cancer cells at 0.5 to 1 nM after 4 days by XTT assay. It is filed as functional, cell-based. For orientation: Tetrazolium dyes change colour on reduction, which living cells bring about.
Data set [1] relates to A549. In words: Antiproliferative activity against human A549 cells after 4 days by XTT assay. It is filed as functional, cell-based. To be noted: A549, 96 h.
Data set [2] deals with Lewis lung carcinoma cell line. Put plainly: Antitumor activity against mouse LLC cells allografted in C57/BL6 mouse assessed as reduction in tumor weight at 0.1 mg/kg, iv administered on day 7, 11 and 14 post transplantation measured on day 20 relative to control. Format: functional.
The subject of data set [3] is KB. Put plainly: Antiproliferative activity against human KB cells after 4 days by XTT assay. It is filed as functional, cell-based. The following applies: 96 h.
For data set [4], the system named is MDA-MB-231. Put plainly: Antiproliferative activity against human MDA-MB-231 cells after 4 days by XTT assay. Format: functional, cell-based. The following applies: MDA-MB-231, 96 h.
For the next data set, the system named is Serum. In words: Stability in bovine serum at 0.5 mg after 48 hrs by HPLC method. It is filed as ADME, cell-free, Bos taurus. The following applies: cattle.
Data set [5] deals with A549. Put plainly: Antiproliferative activity against human A549 cells after 4 days by XTT assay in presence of Escherichia coli beta-glucuronidase. The following applies: A549, 96 h. It is filed as functional, cell-based.
Data set [6] relates to KB. Put plainly: Ratio of IC50 for human KB cells to IC50 for human KB cells in presence of Escherichia coli beta-glucuronidase. It is filed as functional.
Data set [7] has as its system Lewis lung carcinoma cell line. In words: Antitumor activity against mouse LLC cells allografted in C57/BL6 mouse assessed as reduction in tumor weight at 0.5 mg/kg, iv administered on day 7, 11 and 14 post transplantation measured on day 20 relative to control. It is filed as functional.
Data set [8] in a line: Cytotoxicity against human non-small cell lung cancer cells at 1 nM after 4 days by XTT assay in presence of Escherichia coli beta-glucuronidase. It is filed as functional, Cancer cell lines.
In data set [9] the test system is KB. In words: Antiproliferative activity against human KB cells after 4 days by XTT assay in presence of Escherichia coli beta-glucuronidase. To be noted: 96 h. It is filed as functional, cell-based.
A further data set concerns Mus musculus. In words: Toxicity in mouse LLC cells allografted C57/BL6 mouse model assessed as change in body weight at 0.5 mg/kg, iv administered on day 7, 11 and 14 post transplantation measured on day 20. Format: organism-based. More on the design: dose 0.5 mg/kg, route intravenous. The following applies: in vivo.
Data set [10] deals with A549. In words: Ratio of IC50 for human A549 cells to IC50 for human A549 cells in presence of Escherichia coli beta-glucuronidase. Format: functional.
The test system of data set [11] is MDA-MB-231. In words: Ratio of IC50 for human MDA-MB-231 cells to IC50 for human MDA-MB-231 cells in presence of Escherichia coli beta-glucuronidase. It is filed as functional.
Data set [12] in a line: Prodrug conversion in phosphate buffer at pH 7 assessed as MMAE and 4-hydroxy-3-nitrobenzyl alcohol formation after 40 mins by HPLC method in presence of Escherichia coli beta-glucuronidase. To be noted: pH 7, 40 min. Format: physicochemical.
In data set [13] the test system is MDA-MB-231. In words: Antiproliferative activity against human MDA-MB-231 cells after 4 days by XTT assay in presence of Escherichia coli beta-glucuronidase. The following applies: MDA-MB-231, 96 h. Format: functional, cell-based.

The source made the active and inactive calls. No cut-off for these calls is given here. Non-standard residues stand in square brackets, D forms with d. Residues, ends and D or L forms follow the SMILES beside them. *: point of attachment. Dolaproine = CO[C@@H]([C@@H]1CCCN1)[C@@H](C)C(=O)O; Dil = CC[C@H](C)[C@H](NC)[C@@H](CC(=O)O)OC; X1 = C[C@@H](N*)[C@@H](O)c1ccccc1; NMeV = CN[C@H](C(=O)O)C(C)C

Broadly, the IC50 is the concentration at which inhibition is half-maximal. Turning to `CC[C@H](C)[C@@H]([C@@H](CC(=O)N1CCC[C@H]1[C@H](OC)[C@@H](C)C(=O)N[C@H](C)[C@@H](O)c1ccccc1)OC)N(C)C(=O)[C@@H](NC(=O)[C@@H](NC)C(C)C)C(C)C` (H-[NMeV]V[Dil][Dolaproine]-X1), in the data set with Cancer cell lines, the outcome was Active. The values for the IC50 in the data set on A549 [1], with KB [3] and with MDA-MB-231 [4] were 0.59 nM, 0.19 nM and 0.25 nM, respectively. Besides, the “fold change (FC)” value in [2] was 1.5.

For the compound `CC[C@H](C)[C@@H]([C@@H](CC(=O)N1CCC[C@H]1[C@H](OC)[C@@H](C)C(=O)N[C@H](C)[C@@H](O)c1ccccc1)OC)N(C)C(=O)[C@@H](NC(=O)[C@H](C(C)C)N(C)C(=O)OCc1ccc(O[C@@H]2O[C@H](C(=O)O)[C@@H](O)[C@H](O)[C@H]2O)c([N+](=O)[O-])c1)C(C)C`, in the data set on Serum, the Stability result is “Stable”. For the same compound, the IC50 came out at 0.52 nM with A549 [5]; 23.7 nM in the data set on A549 [1]; 0.16 nM in the data set with KB [9]; 20.8 nM with KB [3]; 20.9 nM in the data set on MDA-MB-231 [4]; 0.22 nM in the data set on MDA-MB-231 [13]. In the data set with Cancer cell lines, the outcome was inactive. The “Ratio IC50” value with KB [6], with A549 [10] and in the data set on MDA-MB-231 [11] was 40 in each case. Besides, in data set [7], the “fold change (FC)” value stood at 1.5. In addition, the Activity is 75% in data set [8] and “Non-toxic” in the data set with Mus musculus. For the same compound, the Drug metabolism entry in data set [12] is reported as “Active”.

The values above are taken from ChEMBL document CHEMBL2417433, “Synthesis and biological evaluations of a monomethylauristatin E glucuronide prodrug for selective cancer chemotherapy” (Eur J Med Chem, 2013).
